Experimental findings from patent US10703765B2 (priority 2014, dated 2020) are described below.

Structures are written as SMILES. Structures can show the parent of a compound that is named as a salt.

Sequence of human σ1 receptor (Q99720 whole entry): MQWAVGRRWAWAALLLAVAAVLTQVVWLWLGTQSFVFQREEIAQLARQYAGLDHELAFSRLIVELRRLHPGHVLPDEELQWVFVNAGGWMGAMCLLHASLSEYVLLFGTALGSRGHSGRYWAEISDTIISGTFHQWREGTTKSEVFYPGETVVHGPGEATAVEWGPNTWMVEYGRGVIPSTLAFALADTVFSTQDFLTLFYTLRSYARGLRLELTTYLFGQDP

One assay addresses human σ1 receptor (Homo sapiens, UniProt Q99720). As to the kind of experiment: biochemical. The assay is classed as binding.
Conditions: not given
On the set-up: μ and σ1 dual binding: key to the marks not given beside the values.
The compound `CC1OC2(CCN(CCc3cccc(NC(N)=O)n3)CC2)CN(c2ccccc2)C1=O` (centres unmarked) [Example 264, 1-(6-(2-(2-methyl-3-oxo-4-phenyl-1-oxa-4,9-diazaspiro[5.5]undecan-9-yl)ethyl)pyridin-2-yl)urea] came in with a Ki of less than 500 nM.

As for `CC1OC2(CCN(CCc3cccc(C(N)=O)c3)CC2)CN(c2ccccc2)C1=O` (centres unmarked) [Example 266, 3-(2-(2-methyl-3-oxo-4-phenyl-1-oxa-4,9-diazaspiro[5.5]undecan-9-yl)ethyl)benzamide], the Ki was less than 500 nM.

With `CC1OC2(CCN(CCc3ccccc3)CC2)CN(c2cccc(C(=O)N(C)C)c2)C1=O.Cl` (centres unmarked) [Example 271, N,N-dimethyl-3-(2-methyl-3-oxo-9-phenethyl-1-oxa-4,9-diazaspiro[5.5]undecan-4-yl)benzamide hydrochloride], the “μ and σ1 dual binding” value is “++”.

As for `CN(C)C(=O)CC1OC2(CCN(CCc3ccccc3)CC2)CN(c2ccccc2)C1=O.Cl` (centres unmarked) [Example 272, N,N-dimethyl-2-(3-oxo-9-phenethyl-4-phenyl-1-oxa-4,9-diazaspiro[5.5]undecan-2-yl)acetamide hydrochloride], the “μ and σ1 dual binding” value is “++”.

The compound `CNC(=O)c1cccc(CCN2CCC3(CC2)CN(c2ccccc2F)C(=O)C(C)O3)c1` (centres unmarked) [Example 276, 3-(2-(4-(2-fluorophenyl)-2-methyl-3-oxo-1-oxa-4,9-diazaspiro[5.5]undecan-9-yl)ethyl)-N-methylbenzamide] gave a Ki of less than 500 nM.

Staying with this assay, now noted: combined class from Ki-σ1 (human σ1 receptor, A1) and Ki-μ (human μ-opioid receptor, A2) radioligand binding.
Regarding `CC1OC2(CCN(CCc3cccc(NS(N)(=O)=O)c3)CC2)CN(c2ccccc2)C1=O` (centres unmarked) [Example 265, N-[3-(2-{2-methyl-3-oxo-4-phenyl-1-oxa-4,9-diazaspiro[5.5]undecan-9-yl}ethyl)phenyl]aminosulfonamide], the “μ and σ1 dual binding” value is “++”.

The same assay, now with this note: read-out: μ and σ1 dual binding.
`NC(=O)Nc1cccc(CCN2CCC3(CC2)CN(Cc2ccc(C(F)(F)F)cn2)C(=O)C2(CC2)O3)c1` [Example 263, {3-[2-(13-oxo-12-{[5-(trifluoromethyl)pyridin-2-yl]methyl}-4-oxa-8,12-diazadispiro[2.1.5.3]tridecan-8-yl)ethyl]phenyl}urea]: the Ki is less than 500 nM.

As for `CC1OC2(CCN(CCc3ccc(C(=O)O)cc3)CC2)CN(c2ccccc2)C1=O` (centres unmarked) [Example 267, 4-(2-(2-methyl-3-oxo-4-phenyl-1-oxa-4,9-diazaspiro[5.5]undecan-9-yl)ethyl)benzoic acid], the Ki was more than 500 nM.

For `CC1OC2(CCN(CCc3ccccc3)CC2)CN(c2cccc(C(=O)O)c2)C1=O` (centres unmarked) [Example 268, 3-(2-methyl-3-oxo-9-phenethyl-1-oxa-4,9-diazaspiro[5.5]undecan-4-yl)benzoic acid], the Ki is more than 500 nM.

With `CC1OC2(CCN(CCC(=O)O)CC2)CN(c2ccccc2)C1=O` (centres unmarked) [Example 269, 3-(2-methyl-3-oxo-4-phenyl-1-oxa-4,9-diazaspiro[5.5]undecan-9-yl)propanoic acid], the Ki was more than 500 nM.

`O=C(O)CC1OC2(CCN(CCc3ccccc3)CC2)CN(c2ccccc2)C1=O` (centres unmarked) [Example 270, 2-(3-oxo-9-phenethyl-4-phenyl-1-oxa-4,9-diazaspiro[5.5]undecan-2-yl)acetic acid hydrochloride]: the Ki was more than 500 nM.

In the case of `CC1OC2(CCN(CCc3ccc(C(=O)N(C)C)cc3)CC2)CN(c2ccccc2)C1=O` (centres unmarked) [Example 273, N,N-dimethyl-4-(2-(2-methyl-3-oxo-4-phenyl-1-oxa-4,9-diazaspiro[5.5]undecan-9-yl)ethyl)benzamide hydrochloride], the Ki was more than 500 nM.

Regarding `CNC(=O)c1ccc(CCN2CCC3(CC2)CN(c2ccccc2)C(=O)C(C)O3)cc1` (centres unmarked) [Example 274, N-methyl-4-(2-(2-methyl-3-oxo-4-phenyl-1-oxa-4,9-diazaspiro[5.5]undecan-9-yl)ethyl)benzamide hydrochloride], the Ki is less than 500 nM.

Take `CNC(=O)CCN1CC2(CCN(CCc3ccccc3)CC2)OC2(CC2)C1=O` [Example 275, N-methyl-3-[13-oxo-8-phenethyl-4-oxa-8,12-diazadispiro[2.1.5.3]tridecan-12-yl]propanamide hydrochloride]: the Ki is more than 500 nM.
